Assay results from patent US20240270748A1 (Merck Patent GmbH, priority 2021, published 2024).
Counter-ions that a name gives are not always drawn.

Experiments:
YAP-TEAD interaction = assay: SK-HEP-1 reporter assay (8xTEAD responsive elements driving NanoLuc luciferase); type: cell-based; conditions: Homo sapiens, SK-HEP1, SK-HEP-1 reporter assay
How it was run: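 Reporter read-out: NanoLuc luminescence from 8×TEAD elements stably integrated in SK-HEP-1 cells, after 24 h compound exposure at 37° C. Ten concentrations tested in duplicate, top 30 μM final, 0.3% DMSO; IC50 from curve.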

NCI-H226 cells = assay: Viability assay in NCI-H226 (Yap-dependent) cells, CyQuant; type: cell-based, human; conditions: Homo sapiens, NCI-H226, 96 h, class symbols
Description: Viability Assay in NCI-H226 (Yap-Dependent) and SW620 Yap KO (Yap Independent) Cells
The ability of YAP-TEAD inhibitors to inhibit tumor cell growth was evaluated using two different cell lines: NCI-H226, which is a YAP dependent cell line, and SW620 cells, where YAP and TAZ were knocked out using CRISPR to generate a YAP independent cell line.
For the assay, cells were treated in duplicates with the test compounds in a 10-point dose, 1:3 dilution steps, with the top concentration starting at 30 μM (final concentration in assay). After a 96 hour incubation at 37° C., 95% rH, and 5% CO2, a cell-permeant DNA-binding dye that stains only healthy cells (CyQUANT®, Promega) was added to the cells, allowing the quantification of cell viability.
Cell Media: The NCI-H226 cells were cultured in the following media: RPMI 1640, +10% FBS, +1× GlutaMAX, +10 mM HEPES, +0.5% Pen/Strep. The SW620-KO cells were cultured in the following media: DMEM/F-12, +10% FBS, +1× GlutaMAX, +10 mM HEPES, +0.5% Pen/Strep.
Reagents: The reagents used are listed below:
Cell culture: The cells were examined using an inverted microscope to check for health, cell density, etc. To dissociate adherent cells, the monolayer of cells was washed once with pre-warmed PBS. After removing the PBS, 3 ml pre-warmed Accutase was added to a F75 flask, dispersed evenly and the flask was allowed to sit in incubator for ˜4-5 minutes.
When a single cell suspension was obtained, 7 ml of prewarmed growth media was added and resuspended with the cells. The cell suspension was transferred to a sterile 15 ml conical centrifuge tube, and spun for 5 min at 300×g, RT. The supernatant was discarded and the pellet was resuspended in 10 ml of pre-warmed growth media.
The total cell count was determined, and 20 μl of the desired cell number was added to each well of a 384 well plate using a Multidrop Combi. The plates were then incubated for 24 hours at 37° C., 95% rH, and 5% CO2.
Compound treatment: 24 hours after seeding, the cells were treated with compounds.
A 1:333 dilution of compounds, diluted in DMSO, was made to get a final concentration of 0.3% DMSO per well. To transfer the compounds to the assay plate, […] was shot from Labcyte low dead volume plates to the cell plates containing 20 μl media/well with the ECHO 555 liquid handling system.
After treatment, the cells were fed with 20 μl fresh pre-warmed assay media using a Multidrop combi.
The assay plates were then incubated for 96 h at 37° C., 95% rH, and 5% CO2.
96 h after treatment 30 μl of CyQuant® reagent was added to the assay plates using a Multidrop combi in the dark. The plates were then incubated for 1 hour at 37° C., 95% rH and 5% CO2. Thereafter, the assay plates were removed from the incubator and allowed to equilibrate to RT for 30 min in the dark without lid. Finally, they were measured using an EnVision microplate reader with a FITC bottom read program.

Row | Structure (SMILES) | IC50 (YAP-TEAD interaction; class symbols) [nM] | other results
1 | Cn1cc2c3cc(C(=O)N=[S@](=O)(CCO)Cc4cccnc4)ccc3n(-c3ccc(C(F)(F)F)cc3)c2n1 (single isomer, unassigned) [Example C188] | – | IC50 (YAP-TEAD interaction; n.d. = value not detectable below threshold given in parentheses): > 9500 nM; IC50 (NCI-H226 cells): 1 to 100 nM
2 | Cn1cc2c3cc(C(=O)NC4(CO)CCNCC4)ccc3n(-c3ccc(C(F)(F)F)cc3)c2n1 [Example C218, N-[4-(hydroxymethyl)piperidin-4-yl]-2-methyl-8-[4-(trifluoromethyl)phenyl]-2H,8H-pyrazolo[3,4-b]indole-5-carboxamide] | 100 to 10000 | –
3 | Cn1cc2c3cc(NC(=O)CCN)ccc3n(-c3ccc(C(F)(F)F)cc3)c2n1 [Example C221, 3-amino-N-{2-methyl-8-[4-(trifluoromethyl)phenyl]-2H,8H-pyrazolo[3,4-b]indol-5-yl}propanamide] | 100 to 10000 | –
4 | CNCCC(=O)Nc1ccc2c(c1)c1cn(C)nc1n2-c1ccc(C(F)(F)F)cc1 [Example C222, N-{2-methyl-8-[4-(trifluoromethyl)-phenyl]-2H,8H-pyrazolo[3,4-b]indol-5-yl}-3-(methylamino)propanamide] | 100 to 10000 | –
5 | Cn1cc2c3cc(NC(=O)CC4CCNC4)ccc3n(-c3ccc(C(F)(F)F)cc3)c2n1 (centres unmarked) [Example C223, N-{2-methyl-8-[4-(trifluoromethyl)-phenyl]-2H,8H-pyrazolo[3,4-b]indol-5-yl}-2-(pyrrolidin-3-yl)acetamide] | 100 to 10000 | –
6 | Cn1cc2c3cc(NC(=O)CNC4CCNC4)ccc3n(-c3ccc(C(F)(F)F)cc3)c2n1 (centres unmarked) [Example C224, N-{2-methyl-8-[4-(trifluoromethyl)phenyl]-2H,8H-pyrazolo[3,4-b]indol-5-yl}-2-[{pyrrolidin-3-yl)amino]acetamide] | 100 to 10000 | –
7 | Cn1cc2c3cc(C(=O)N[C@@H](CO)c4ccccn4)cnc3n(-c3ccc(C(F)(F)F)cc3)c2n1 [Example C228, N-[(1R)-2-hydroxy-1-(pyridin-2-yl)ethyl]-4-methyl-7-[4-(trifluoromethyl)phenyl]-4,5,7,9-tetraazatricyclo[6.4.0.0^2,6]dodeca-1(8),2,5,9,11-pentaene-11-carboxamide] | 10 to 100 | –
8 | Cn1cc2c3nc(C(N)=O)ccc3n(-c3ccc(C(F)(F)F)cc3)c2n1 [Example C229, 4-methyl-7-[4-(trifluoromethyl)phenyl]-4,5,7,12-tetraazatricyclo[6.4.0.0^2,6]dodeca-1(8),2,5,9,11-pentaene-11-carboxamide] | 100 to 10000 | –
9 | Cn1nc2c3cc(C4CC(n5ccnn5)=NO4)ccc3n(-c3ccc(C(F)(F)F)cc3)c2n1 (centres unmarked) [Example C232, 1-(5-{2-methyl-4-[4-(trifluoromethyl)phenyl]-3H,4H-[1,2,3]triazolo[4,5-b]indol-7-yl}-4,5-dihydro-1,2-oxazol-3-yl)-1H-1,2,3-triazole] | 100 to 10000 | –
10 | Cn1nc2c3cc(C4CC(Oc5cncnc5)=NO4)ccc3n(-c3ccc(C(F)(F)F)cc3)c2n1 (centres unmarked) [Example C234, 5-[(5-{2-methyl-4-[4-(trifluoromethyl)-phenyl]-2H,4H-[1,2,3]triazolo[4,5-b]indol-7-yl}-4,5-dihydro-1,2-oxazol-3-yl)oxy]pyrimidine] | 10 to 100 | –
11 | Cn1cc2c3cc(NC(=O)COC4CNC4)ccc3n(-c3ccc(C(F)(F)F)cc3)c2n1 [Example C243, 2-(azetidin-3-yloxy)-N-{2-methyl-8-[4-(trifluoromethyl)phenyl]-2H,8H-pyrazolo[3,4-b]indol-5-yl}acetamide formate] | 100 to 10000 | –
12 | Cn1cc2c3cc(NC(=O)CC4CNC4)ccc3n(-c3ccc(C(F)(F)F)cc3)c2n1 [Example C244, 2-(azetidin-3-yl)-N-{2-methyl-8-[4-(trifluoromethyl)phenyl]-2H,8H-pyrazolo[3,4-b]indol-5-yl}acetamide formate] | 100 to 10000 | –
13 | CCCn1cc2c3cc(C(=O)N[C@@H](CO)c4ccccn4)ccc3n(-c3ccc(C(F)(F)F)cc3)c2n1 [Example C255, N-[(1R)-2-hydroxy-1-(pyridin-2-yl)ethyl]-2-propyl-8-[4-(trifluoromethyl)phenyl]-2H,8H-pyrazolo[3,4-b]indole-5-carboxamide] | > 10000 | –
14 | CCn1cc2c3cc(C(=O)N[C@@H](CO)c4ccccn4)ccc3n(-c3ccc(C(F)(F)F)cc3)c2n1 [Example C256, 2-ethyl-N-[(1R)-2-hydroxy-1-(pyridin-2-yl)ethyl]-8-[4-(trifluoromethyl)phenyl]-2H,8H-pyrazolo[3,4-b]indole-5-carboxamide] | 1 to 10 | –
15 | Cn1nc2c3cc(C(=O)O)ccc3n(-c3ccc(C(F)(F)F)cc3F)c2n1 [Example C258, 4-[2-fluoro-4-(trifluoromethyl)phenyl]-2-methyl-2H,4H-[1,2,3]triazolo[4,5-b]indole-7-carboxylic acid] | 1 to 10 | –
16 | Cn1cc2c3cc(NC(=O)CC4(O)CNC4)ccc3n(-c3ccc(C(F)(F)F)cc3)c2n1 [Example C259, 2-(3-hydroxyazetidin-3-yl)-N-{2-methyl-8-[4-(trifluoromethyl)phenyl]-2H,8H-pyrazolo[3,4-b]indol-5-yl}acetamide Formate] | 100 to 10000 | –
17 | C[C@H](NC(=O)c1ccc2c(c1)c1cn(C)nc1n2-c1ccc(C(F)(F)F)cc1)c1ccnc(N)c1 [Example C264] | 100 to 10000 | –
18 | C[C@H](NC(=O)c1ccc2c(c1)c1cn(C)nc1n2-c1ccc(C(F)(F)F)cc1)c1ccc(Cl)nc1 [Example C265, N-[(1S)-1-(6-chloropyridin-3-yl)ethyl]-2-methyl-8-[4-(trifluoromethyl)phenyl]-2H,8H-pyrazolo[3,4-b]indole-5-carboxamide] | 10 to 100 | –
19 | Cn1cc2c3cc(C(=O)NC(CO)c4nncn4C)ccc3n(-c3ccc(C(F)(F)F)cc3)c2n1 (centres unmarked) [Example C267, N-[2-hydroxy-1-(4-methyl-4H-1,2,4-triazol-3-yl)ethyl]-2-methyl-8-[4-(trifluoromethyl)phenyl]-2H,8H-pyrazolo[3,4-b]indole-5-carboxamide] | 100 to 10000 | –
20 | Cc1noc(C(CO)NC(=O)c2ccc3c(c2)c2cn(C)nc2n3-c2ccc(C(F)(F)F)cc2)n1 (centres unmarked) [Example C268, N-[2-hydroxy-1-(3-methyl-1,2,4-oxadiazol-5-yl)ethyl]-2-methyl-8-[4-(trifluoromethyl)phenyl]-2H,8H-pyrazolo[3,4-b]indole-5-carboxamide] | 100 to 10000 | –
21 | Cn1cc2c3cc(C(=O)/N=S4/CC(N)CO4)ccc3n(-c3ccc(C(F)(F)F)cc3)c2n1 (centres unmarked) [Example C269, N-(4-amino-1,2lambda4-oxathiolan-2-ylidene)-2-methyl-8-[4-(trifluoromethyl)phenyl]-2H,8H-pyrazolo[3,4-b]indole-5-carboxamide formate] | 100 to 10000 | –
22 | Cn1cc2c3cc(C(=O)N=S4(=O)CC(N)C4)ccc3n(-c3ccc(C(F)(F)F)cc3)c2n1 (centres unmarked) [Example C270, N-(3-amino-1-oxo-1¿6-thietan-1-ylidene)-2-methyl-8-[4-(trifluoromethyl)phenyl]-2H,8H-pyrazolo[3,4-b]indole-5-carboxamide formate] | 10 to 100 | –
23 | Cn1cc2c3cc(C(=O)N=S4(=O)CC5(CNC5)C4)ccc3n(-c3ccc(C(F)(F)F)cc3)c2n1 [Example C271, 2-methyl-N-{2-oxo-2¿6-thia-6-azaspiro[3.3]heptan-2-ylidene}-8-[4-(trifluoromethyl)phenyl]-2H,8H-pyrazolo[3,4-b]indole-5-carboxamide Formate] | 100 to 10000 | –
24 | Cn1nc2c3cc(C(=O)NC(CO)c4nncn4C)ccc3n(-c3ccc(C(F)(F)F)cc3)c2n1 (centres unmarked) [Example C274, N-[2-hydroxy-1-(4-methyl-4H-1,2,4-triazol-3-yl)ethyl]-2-methyl-4-[4-(trifluoromethyl)phenyl]-2H,4H-[1,2,3]triazolo[4,5-b]indole-7-carboxamide] | 100 to 10000 | –
25 | Cn1cc2c3cc(C4CC(F)(F)C(=O)N4)ccc3n(-c3ccc(C(F)(F)F)cc3)c2n1 (centres unmarked) [Example C275, 3,3-difluoro-5-{2-methyl-8-[4-(trifluoromethyl)phenyl]-2H,8H-pyrazolo[3,4-b]indol-5-yl}pyrrolidin-2-one] | 10 to 100 | –
